In PubChem BioAssay AID304 (DTP/NCI, 2004):
Several values for one entry are separate records, joined by “and”; a condition that tells them apart may be missing. Identical values can stand only once. Inconclusive results and toxic doses are left out.

Test system: Lymphosarcoma Mecca ip in C3AKF1 mice, survival T/C%
Test: NCI In Vivo Anticancer Drug Screen. Data for tumor model Lymphosarcoma Mecca (intraperitoneal) in C3AKF1 (CHKRF1) mice
Settings: endpoint: survival time, mean or median, higher = longer survival
Protocol: The antitumor activity of compounds was measured in mice bearing transplantable tumors. Survival or tumor size were measured and the results are expressed as the measurement made in the treated group (T) divided by the measurement made in the vehicle treated control group (C). The tumor model used in this assay is Lymphosarcoma Mecca (intraperitoneal) in C3AKF1 (CHKRF1) mice

[1] = dose: 25.0 mg/kg/injection, schedule: Q01DX010 (ip), vehicle: saline
[2] = dose: 50.0 mg/kg/injection, schedule: Q01DX010 (ip), vehicle: saline
[3] = dose: 100.0 mg/kg/injection, schedule: Q01DX010 (ip), vehicle: saline
[4] = dose: 200.0 mg/kg/injection, schedule: Q01DX010 (ip), vehicle: saline
[5] = dose: 4.0 mg/kg/injection, schedule: Q01DX010 (ip), vehicle: saline
[6] = dose: 8.0 mg/kg/injection, schedule: Q01DX010 (ip), vehicle: saline
[7] = dose: 16.0 mg/kg/injection, schedule: Q01DX010 (ip), vehicle: saline

Question: Which results are given for C[C@H](N)C(=O)N[C@@H]1[C@H]2C(=C(O)C[C@@H](O)[C@@H]2O)C(=O)O[C@@H]1C?
Answer: T/C (dose: 150.0 mg/kg/injection, schedule: Q01DX010 (ip), vehicle: saline): 155 % of control; T/C (dose: 300.0 mg/kg/injection, schedule: Q01DX010 (ip), vehicle: saline): 92 % of control; T/C (dose: 600.0 mg/kg/injection, schedule: Q01DX010 (ip), vehicle: saline): 100 % of control and 120 % of control; T/C (dose: 1200.0 mg/kg/injection, schedule: Q01DX010 (ip), vehicle: saline): 155 % of control

Question: For COC1C(OC(=O)/C=C/C=C/C=C/C=C/C(=O)O)CCC2(CO2)C1C1(C)OC1CC=C(C)C (centres undefined), which T/C [1] is on record?
Answer: 100 % of control

Question: What about the T/C [2] of the same compound?
Answer: 100 % of control and 110 % of control

Question: And the T/C [3]?
Answer: 100 % of control and 104 % of control

Question: And the T/C [4]?
Answer: 90 % of control

Question: What does the source list for NC(Cc1ccc(N(CCCl)CCCl)cc1)C(=O)O (centres undefined)?
Answer: T/C (dose: 2.0 mg/kg/injection, schedule: Q01DX010 (ip), vehicle: saline): 188 % of control and 190 % of control; T/C [5]: 165 % of control and 224 % of control; T/C (dose: 5.0 mg/kg/injection, schedule: Q01DX010 (ip), vehicle: saline): 160 % of control; T/C [6]: 168 % of control; T/C (dose: 10.0 mg/kg/injection, schedule: Q01DX010 (ip), vehicle: saline): 105 % of control and 110 % of control; T/C [7]: 100 % of control and 108 % of control; T/C (dose: 20.0 mg/kg/injection, schedule: Q01DX010 (ip), vehicle: saline): 95 % of control

Question: For CC/C(=C(/CC)c1ccc(O)cc1)c1ccc(O)cc1, which T/C (dose: 12.5 mg/kg/injection, schedule: Q01DX010 (sc), vehicle: steriod suspending solution) is on record?
Answer: 96 % of control and 110 % of control

Question: And the T/C (dose: 25.0 mg/kg/injection, schedule: Q01DX010 (sc), vehicle: steriod suspending solution)?
Answer: 120 % of control

Question: What about the T/C (dose: 50.0 mg/kg/injection, schedule: Q01DX010 (sc), vehicle: steriod suspending solution) of the same compound?
Answer: 88 % of control and 105 % of control

Question: What about the T/C (dose: 100.0 mg/kg/injection, schedule: Q01DX010 (sc), vehicle: steriod suspending solution) of the same compound?
Answer: 92 % of control and 100 % of control

Question: N=[N+]=CC(=O)OCC(N)C(=O)O (centres undefined) was tested. Which T/C (dose: 3.13 mg/kg/injection, schedule: Q01DX010 (ip), vehicle: saline) did it give?
Answer: 120 % of control and 124 % of control

Question: What about the T/C (dose: 6.25 mg/kg/injection, schedule: Q01DX010 (ip), vehicle: saline) of the same compound?
Answer: 100 % of control

Question: And the T/C (dose: 12.5 mg/kg/injection, schedule: Q01DX010 (ip), vehicle: saline)?
Answer: 116 % of control

Question: And the T/C [1]?
Answer: 105 % of control

Question: What does the source list for OC(CBr)C(O)C(O)C(O)CBr (centres undefined)?
Answer: T/C [1]: 100 % of control; T/C [2]: 100 % of control; T/C [3]: 100 % of control and 110 % of control; T/C [4]: 89 % of control; T/C (dose: 400.0 mg/kg/injection, schedule: Q01DX010 (ip), vehicle: saline): 115 % of control

Question: For NC(=O)N(CCCl)N=O, which T/C (dose: 0.5 mg/kg/injection, schedule: Q01DX010 (ip), vehicle: saline) is on record?
Answer: 300 % of control

Question: And the T/C (dose: 1.0 mg/kg/injection, schedule: Q01DX010 (ip), vehicle: saline)?
Answer: 158 % of control and 230 % of control

Question: And the T/C [5]?
Answer: 110 % of control

Question: Which T/C [6] does the source give for c1ccc(CNc2ncnc3[nH]ncc23)cc1 here?
Answer: 151 % of control

Question: What about the T/C [7] of the same compound?
Answer: 100 % of control and 118 % of control

Question: What about the T/C (dose: 32.0 mg/kg/injection, schedule: Q01DX010 (ip), vehicle: saline) of the same compound?
Answer: 90 % of control
